5 compounds from ChEMBL document CHEMBL1201862, “PubChem BioAssay data set” (2004) can be followed below.

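1) Cells in 96-well plates. 2) Compound, 48 h, 5 concentrations. 3) Linear interpolation between surrounding doses. 4) Unreached endpoint = highest concentration. GI50 marks 50% less growth.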 Active and inactive are the calls of the source. Cut-off read from the data, not from the text of the source: active = GI50 up to about 1.1 µM and inactive = higher.

Among the test systems are SNB-19; Hs-578T; SK-MEL-5; LOX IMVI; T47D; MOLT-4; NCI-H226; HCT-116; K562; KM-20L2; OVCAR-5; 786-0; NCI-H23; SF-539; RXF 393; A498; EKVX; OVCAR-3; COLO 205; NCI-H460.
Common to all, as to test: NCI-60 cell line screen, 48 h

Consider `CN1CCN(c2ccc3[nH]c(-c4ccc5[nH]c(-c6ccc(O)cc6)nc5c4)nc3c2)CC1`, for which the GI50 in the experiment on SNB-19 is 391 µM (inactive); in the experiment with Hs-578T it was > 100 µM (inactive); with SK-MEL-5 it was 11.8 µM (inactive); in the experiment on LOX IMVI it was 85.5 µM (inactive); in the experiment with T47D, 9.4 µM (inactive); in the experiment with MOLT-4, 29.1 µM (inactive). Besides, the GI50 is 170 µM (inactive) with NCI-H226; 13.5 µM (inactive) in the experiment with HCT-116; 23.3 µM (inactive) in the experiment on K562; 158 µM (inactive) with KM-20L2; 473 µM (inactive) with OVCAR-5; 228 µM (inactive) in the experiment with 786-0. The GI50 was 240 µM (inactive) in the experiment on NCI-H23, 54.8 µM (inactive) with SF-539, 130 µM (inactive) in the experiment on RXF 393 and 241 µM (inactive) in the experiment with A498.
Turning to `CC(C)S(=O)(=O)ON1C(=O)c2ccc(N(C)C)cc2C1=O`, the GI50 is 40.4 µM (inactive) in the experiment with SNB-19; > 10 µM (inactive) in the experiment with Hs-578T; 22.3 µM (inactive) in the experiment with EKVX; 3.96 µM (inactive) in the experiment with SK-MEL-5; 8.91 µM (inactive) with OVCAR-3; 13.2 µM (inactive) in the experiment with LOX IMVI. The GI50 with T47D was 9.4 µM (inactive); with MOLT-4 it was 2.12 µM (inactive); in the experiment on NCI-H226, 25.2 µM (inactive); in the experiment on HCT-116 it was 14.8 µM (inactive); in the experiment with K562, 3.41 µM (inactive); in the experiment with KM-20L2, 20.4 µM (inactive). Further, the GI50 in the experiment with COLO 205 was 2.86 µM (inactive); with OVCAR-5 it was 18.8 µM (inactive); in the experiment with 786-0, 4.66 µM (inactive); in the experiment on NCI-H23 it was 27.7 µM (inactive); with SF-539 it was 19 µM (inactive); in the experiment with RXF 393 it was 13.2 µM (inactive). In addition, the GI50 in the experiment on NCI-H460 was 19.9 µM (inactive); with A498, > 43.7 µM (inactive).
For `CN1C(c2ccccc2)CC(C)(O)CC1c1ccccc1` (configuration not stated), the GI50 in the experiment with SNB-19, with EKVX, in the experiment with SK-MEL-5, in the experiment with OVCAR-3, in the experiment on LOX IMVI and in the experiment with MOLT-4 was > 100 µM (inactive) each time. Besides, the GI50 with NCI-H226, in the experiment on HCT-116, in the experiment on K562, with KM-20L2, in the experiment on COLO 205 and in the experiment with OVCAR-5 was > 100 µM (inactive) in each case. The GI50 with 786-0, in the experiment on NCI-H23, in the experiment with SF-539, with RXF 393, with NCI-H460 and with A498 was > 100 µM (inactive) throughout.
`CCCCCC(=O)OC[n+]1ccc2c(C)c3[nH]c4ccc(OC)cc4c3c(C)c2c1`: the GI50 with SNB-19 is 0.189 µM (active); in the experiment with Hs-578T it was 1.11 µM (active); with EKVX, 0.925 µM (active); with SK-MEL-5, 1.57 µM (inactive); with OVCAR-3 it was > 100 µM (inactive); in the experiment on LOX IMVI, 0.224 µM (active). Also, the GI50 in the experiment on T47D is 1.02 µM (active); in the experiment on MOLT-4 it was 0.0419 µM (active); in the experiment with NCI-H226, 0.276 µM (active); in the experiment on HCT-116 it was 0.0482 µM (active); in the experiment with K562 it was 0.0632 µM (active); in the experiment with KM-20L2 it was > 100 µM (inactive). Further, the GI50 is 0.251 µM (active) with COLO 205; 0.556 µM (active) in the experiment on OVCAR-5; 0.0843 µM (active) in the experiment with 786-0; 0.361 µM (active) in the experiment with NCI-H23; 0.238 µM (active) in the experiment on SF-539; 0.208 µM (active) in the experiment with RXF 393. Moreover, the values for the GI50 with NCI-H460 and in the experiment with A498 were 0.0325 µM (active) and 1.07 µM (active), respectively.
With `O=C1CCC(=O)c2cc(Br)ccc2N1`, the GI50 was > 100 µM (inactive) in the experiment with SNB-19; > 63.2 µM (inactive) in the experiment on EKVX; > 100 µM (inactive) in the experiment with SK-MEL-5; > 100 µM (inactive) in the experiment with OVCAR-3; > 96.6 µM (inactive) with LOX IMVI; > 100 µM (inactive) in the experiment on MOLT-4. Further, the GI50 in the experiment with NCI-H226 was > 100 µM (inactive); with HCT-116, > 40.8 µM (inactive); in the experiment on K562, > 100 µM (inactive); in the experiment on KM-20L2, > 100 µM (inactive); in the experiment on COLO 205, > 100 µM (inactive); in the experiment with OVCAR-5, > 100 µM (inactive). Moreover, the GI50 is > 100 µM (inactive) in the experiment with 786-0; > 100 µM (inactive) with NCI-H23; > 100 µM (inactive) with SF-539; > 74.1 µM (inactive) in the experiment with RXF 393; > 100 µM (inactive) in the experiment on NCI-H460; > 100 µM (inactive) in the experiment with A498.
